Results taken from PMC13252604, “First Generation Proteolysis Targeting Chimeras (PROTACs) for the Treatment of Progeria” (Advanced Science, 2026).

Target: T1, ternary complex between progerin, compound 2 and CRBN (Mus musculus, UniProt P48678+Q8C7D2, DEL608-657)
T1 construct: endogenous in cells; host or cells: Lmna G609G/G609G mouse fibroblasts
Assay: Co-immunoprecipitation of ternary complex (anti-CRBN IP, anti-progerin blot)
Type: binding
Details: 5 µM, 6 h, Lmna^G609G/G609G fibroblasts
Source text: (A) Input IP .LM123L T-!=> V,!=>
MW Veh Cpd 2 Cpd 2 Veh !!!!!"#$$#B -45665 T4--8 -4;?,;
Progerin !!!!!E#)*+,- ,V4:-Ise::::: :etpoooomX,?4?V:enst9mmqo,848; !?#$B?CDEFCBG+I-+G.BLG+ […]
!!!!!*+,- 84;66L<-,VI9e::::::esnnsmqmXV4-;VL<-,?:estm9XpoX?4T-?L<-,8 FFFFF0BNNB$ :em9Xn […]
IgG heavy chain Iqep:m:p ne:qmppo:m :esmpqtmpn FFFFFSB#T89:I9em:m […]
50- Iqe9mt:: :eoX9ppnnm :eoqpq9s9p X9YF8=F>.-B2?E+FE??+E?@BBCA
FFFFF0BNNB$ rrrFNBF:eqoqs
Cpd 2 Veh FFFFFSB#T89:rrr […]
Vehicle .LM123L T-!=>(%C" V,!=> […]
50- !!!!!C#' -4TT8VLamin C -4T:T; (%$$-4-:?5T '()*+
!!!!!E#)*+,- ,V4:-β-Actin ,?4?V ,848; D(%
37- !!!!!*+,- 84;66L<-,V V4-;VL<-,? ?4T-?L<-,8 ,-)*+ […]
Abundance Ratio (log2): Ve h / Cpd 2
Supporting Figure S2. Ternary complex formation, progerin engagement and global selectivity of compound 2. (A) Progeroid […]/G609G fibroblasts treated with vehicle (0.1% DMSO) or compound 2 (5 µM) were subjected to immunoprecipitation with an anti-CRBN antibody and then immunoblotted with an anti-progerin antibody. Bar graph represents mean±sem of 2 independent experiments. (B) Representative progerin immunoblotting of the soluble fraction of LmnaG609G/G609G cell homogenates treated with […]
Cells were harvested by trypsin, centrifuged and washed with PBS. […] The mixture was then allowed to incubate for 30min at 37 °C in the dark and samples were finally analysed by FACScalibur (Becton Dickinson) flow cytometer […]

T1 sequence (P48678 with tags, fused parts or gaps DEL608-657 limits assumed): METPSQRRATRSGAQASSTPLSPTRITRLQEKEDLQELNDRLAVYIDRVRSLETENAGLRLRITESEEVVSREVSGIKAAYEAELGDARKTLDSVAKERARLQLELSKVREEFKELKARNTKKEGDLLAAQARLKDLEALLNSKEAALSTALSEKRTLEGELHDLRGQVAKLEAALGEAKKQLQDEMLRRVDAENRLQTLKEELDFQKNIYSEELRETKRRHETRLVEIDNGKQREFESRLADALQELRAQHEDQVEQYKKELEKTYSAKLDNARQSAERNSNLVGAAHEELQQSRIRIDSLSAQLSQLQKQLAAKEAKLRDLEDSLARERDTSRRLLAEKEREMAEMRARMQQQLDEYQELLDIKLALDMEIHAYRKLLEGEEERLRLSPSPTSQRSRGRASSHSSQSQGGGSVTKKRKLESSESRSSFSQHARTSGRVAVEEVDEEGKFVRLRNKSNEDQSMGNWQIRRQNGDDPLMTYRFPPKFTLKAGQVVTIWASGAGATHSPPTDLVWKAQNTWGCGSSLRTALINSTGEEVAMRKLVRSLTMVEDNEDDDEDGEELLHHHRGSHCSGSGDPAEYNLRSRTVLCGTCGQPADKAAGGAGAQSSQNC
T1 sequence (Q8C7D2 whole entry, stated change not applied): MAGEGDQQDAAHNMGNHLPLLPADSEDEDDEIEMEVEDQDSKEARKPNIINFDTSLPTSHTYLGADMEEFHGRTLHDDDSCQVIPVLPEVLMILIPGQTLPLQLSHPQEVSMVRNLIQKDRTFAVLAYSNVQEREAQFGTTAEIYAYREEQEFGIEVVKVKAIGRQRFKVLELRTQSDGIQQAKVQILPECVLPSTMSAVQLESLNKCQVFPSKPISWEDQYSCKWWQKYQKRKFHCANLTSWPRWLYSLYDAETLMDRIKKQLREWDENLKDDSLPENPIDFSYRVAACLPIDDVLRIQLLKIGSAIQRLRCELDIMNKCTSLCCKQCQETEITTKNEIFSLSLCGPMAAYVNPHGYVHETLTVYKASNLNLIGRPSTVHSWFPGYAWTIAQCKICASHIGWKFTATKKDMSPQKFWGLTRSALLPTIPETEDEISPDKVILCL
T1 sequence (Q3U1J4 whole entry partner): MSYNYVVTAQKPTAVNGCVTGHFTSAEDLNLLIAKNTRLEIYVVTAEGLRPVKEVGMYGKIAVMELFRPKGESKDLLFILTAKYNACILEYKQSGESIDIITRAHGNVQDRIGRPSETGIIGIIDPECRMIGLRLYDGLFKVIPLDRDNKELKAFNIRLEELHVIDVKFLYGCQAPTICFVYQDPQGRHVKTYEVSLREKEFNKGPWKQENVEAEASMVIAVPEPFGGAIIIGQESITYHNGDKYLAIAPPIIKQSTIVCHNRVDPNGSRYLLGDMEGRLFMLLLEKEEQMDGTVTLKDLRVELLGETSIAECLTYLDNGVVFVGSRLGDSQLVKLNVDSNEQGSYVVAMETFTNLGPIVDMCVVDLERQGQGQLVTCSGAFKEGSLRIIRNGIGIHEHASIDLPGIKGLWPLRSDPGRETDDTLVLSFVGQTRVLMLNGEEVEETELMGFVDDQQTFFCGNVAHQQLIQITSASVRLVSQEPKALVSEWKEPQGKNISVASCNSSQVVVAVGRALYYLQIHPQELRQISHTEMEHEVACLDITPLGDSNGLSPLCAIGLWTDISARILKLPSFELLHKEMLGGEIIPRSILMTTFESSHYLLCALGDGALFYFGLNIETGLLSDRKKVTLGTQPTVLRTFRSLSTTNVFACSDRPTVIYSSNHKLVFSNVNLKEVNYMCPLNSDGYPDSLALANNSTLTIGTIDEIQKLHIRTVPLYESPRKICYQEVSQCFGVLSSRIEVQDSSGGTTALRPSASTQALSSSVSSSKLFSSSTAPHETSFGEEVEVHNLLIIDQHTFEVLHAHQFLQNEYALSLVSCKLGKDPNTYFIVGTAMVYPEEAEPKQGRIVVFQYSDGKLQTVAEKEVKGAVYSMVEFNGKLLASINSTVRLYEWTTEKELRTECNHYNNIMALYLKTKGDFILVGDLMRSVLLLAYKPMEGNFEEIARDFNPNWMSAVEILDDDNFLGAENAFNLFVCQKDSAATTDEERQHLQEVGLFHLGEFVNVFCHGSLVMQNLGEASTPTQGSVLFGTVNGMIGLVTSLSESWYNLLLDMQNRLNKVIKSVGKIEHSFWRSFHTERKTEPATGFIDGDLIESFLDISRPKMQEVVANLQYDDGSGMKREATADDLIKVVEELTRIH

For `CC1(C)Oc2cc3oc(=O)ccc3cc2C[C@@H]1OC(=O)CCCCCNc1cccc2c1C(=O)N(C1CCC(=O)NC1=O)C2=O` (stereo partly shown) [compound 2], the “formation of ternary complex with progerin and CRBN by immunoprecipitation” value was “confirmed the formation of the ternary complex”.
